The results in this text go back to a melting point compilation (Tetko et al.).

Each structure is given as a SMILES string.

As usually defined, the melting point is the temperature of the solid-liquid transition.

`CCCCCCCCCCCC(=O)N1CC(=O)NC(=O)C1` showed a melting point of 114 to 116 °C.
Under `COc1ccc(NC(=S)c2ccccc2)cc1` stands 133 °C; under `CCOC(=O)Nc1ccccc1`, 47 to 51 °C.
Then `CNCCC(Oc1ccc(C(F)(F)F)cc1)c1ccccc1` (stereo not given), with 180 °C; and `CCOc1cc(NC(C)=O)ccc1C(=O)OC`, with 148 °C; and `C#CCCCCCCCCC`, with -25 °C.
On to `c1cc2c(c3c1CCCC3)CCCC2`, for which the melting point turned out to be 16.7 °C.
Under `COc1ccc(OC)c(C(=O)CBr)c1` stands 83 to 88 °C; under `COC(CC(C)=O)OC`, -82 °C; under `COc1ccc(Cl)cc1N=C=O`, 60 to 62 °C.
For the compound `CCCC1COC(c2ccc(C#N)cc2)OC1` (stereo not given), the melting point amounted to 57.5 °C.
Under `C#CCN1CCS(=O)(=O)CC1` stands 114 to 116 °C.
Under `Nc1nccnc1C(=O)O` stands 201 to 205 °C; under `N#CC1=C(N)Oc2[nH]nc(C(F)(F)F)c2C1c1ccccc1Cl` (stereo not given), 181 °C; under `COC(=O)c1cc(Oc2ccc(Cl)cc2Cl)ccc1[N+](=O)[O-]`, 87 °C.
Then `Cc1ccc(C(c2ccc(C)o2)c2ccccc2[N+](=O)[O-])o1`, with 80 °C; and `CC1=NN(c2ccc([N+](=O)[O-])cc2)C(=O)C1[N+](=O)[O-]` (stereo not given), with 119 °C; and `COc1ccc(C=C2SC(=S)N(CN3CCCCC3)C2=O)cc1`, with 222 to 223 °C.
In the case of `Oc1cc(Cl)c(Cl)c(Cl)c1`, the melting point worked out at 101 °C.
Then `CC(C)(C)C(=O)Nc1ccc2nn(C3CCCC3)nc2c1`, with 136 °C; and `CC1CN(c2ccccc2)NC1=O` (stereo not given), with 133 to 136 °C; and `Cc1c(Cl)cccc1S(=O)(=O)Cl`, with 71 to 73 °C.
Under `CCCc1cccc(O)c1` stands 26 °C; under `Cn1ncc2c(=N)n(N)cnc21`, 185 °C.
In turn, `Fc1ccc2[nH]ccc2c1` had a melting point of 45 °C.
Under `COc1ccc(C=Cc2ccccc2)cc1` stands 135 to 138 °C.
Then `O=C1C=CC(=O)N1Cc1ccccc1`, with 69 °C; and `CCOc1ncnc2c1cnn2-c1ccccc1`, with 94 to 96 °C; and `COc1ccc(C=NN=Cc2ccc(OC)cc2)cc1`, with 167 to 168 °C.
`CC(C)(C)OC(=O)N1CCC2(CC1)NC(=O)c1cc(Br)ccc1O2` showed a melting point of 226 to 227 °C.
The compound `O=C(Cl)c1cc(-c2ccc(Cl)cc2)oc1C(F)(F)F` yielded a melting point of 135 to 137 °C.
Under `Clc1c(Cl)c(Cl)c2ccccc2c1Cl` stands 198 °C.
Then `c1ccc(-c2cc[nH]n2)cc1`, with 75 to 77 °C; and `OCCN1CCN(Cc2ccc(F)cc2)CC1`, with 55 to 56 °C; and `Cc1ccncc1[N+](=O)[O-]`, with 20 °C.
Then `c1ccc(Nc2nc(N3CCOCC3)nc(N3CCOCC3)n2)cc1`, with 173 °C; and `COC(=O)CSc1cc(N=c2sc(=O)n3n2CCCC3)c(F)cc1Cl`, with 106 °C; and `CCOC(=O)c1sc(SC)c(S(C)(=O)=O)c1N`, with 111 to 113 °C.
`ClCC(Br)CBr` (stereo not given) came in with a melting point of 6 °C.
Then `Fc1cc2nsnc2cc1Cl`, with 78 °C; and `CCOC(=O)C1CCN(c2cc(C#N)ccn2)CC1`, with 51 to 53 °C; and `Cc1ccc2sc(C=O)cc2c1`, with 98 to 99 °C.
Under `c1cc2c(cc1CN1CCNCC1)OCO2` stands 43 °C.
Under `CCOc1ccc(-c2nnc3n2NC(c2ccc(O)c(OC)c2)S3)cc1` (stereo not given) stands 133 °C; under `CC1(C(=O)O)CCC(O)(CC(O)c2ccccc2)C1(C)C` (stereo not given), 188 °C.
